The target of one series is FGFR4 kinase (Homo sapiens, UniProt P22455). The experiment in a line: Inhibition of FGFR4 kinase activity (ULight-labeled JAK-1 peptide, EU665/EU615 reading). It counts as biochemical. The settings on record: FGFR4 kinase 3.85 nM, ATP 100 μM, enzymatic reaction 2 hours. The method in brief: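 TR-FRET kinase assay using 3.85 nM FGFR4, 100 μM ATP and 100 nM ULight-JAK-1 (Tyr1023) peptide; 5 min enzyme–compound preincubation, then 2 h at room temperature. Compounds at 11 3-fold dilutions from 2.5 μM down to 0.042 nM, 1% DMSO. IC50 from EU665/EU615 ratio inhibition curves.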
Sequence of FGFR4 kinase (P22455 22-802): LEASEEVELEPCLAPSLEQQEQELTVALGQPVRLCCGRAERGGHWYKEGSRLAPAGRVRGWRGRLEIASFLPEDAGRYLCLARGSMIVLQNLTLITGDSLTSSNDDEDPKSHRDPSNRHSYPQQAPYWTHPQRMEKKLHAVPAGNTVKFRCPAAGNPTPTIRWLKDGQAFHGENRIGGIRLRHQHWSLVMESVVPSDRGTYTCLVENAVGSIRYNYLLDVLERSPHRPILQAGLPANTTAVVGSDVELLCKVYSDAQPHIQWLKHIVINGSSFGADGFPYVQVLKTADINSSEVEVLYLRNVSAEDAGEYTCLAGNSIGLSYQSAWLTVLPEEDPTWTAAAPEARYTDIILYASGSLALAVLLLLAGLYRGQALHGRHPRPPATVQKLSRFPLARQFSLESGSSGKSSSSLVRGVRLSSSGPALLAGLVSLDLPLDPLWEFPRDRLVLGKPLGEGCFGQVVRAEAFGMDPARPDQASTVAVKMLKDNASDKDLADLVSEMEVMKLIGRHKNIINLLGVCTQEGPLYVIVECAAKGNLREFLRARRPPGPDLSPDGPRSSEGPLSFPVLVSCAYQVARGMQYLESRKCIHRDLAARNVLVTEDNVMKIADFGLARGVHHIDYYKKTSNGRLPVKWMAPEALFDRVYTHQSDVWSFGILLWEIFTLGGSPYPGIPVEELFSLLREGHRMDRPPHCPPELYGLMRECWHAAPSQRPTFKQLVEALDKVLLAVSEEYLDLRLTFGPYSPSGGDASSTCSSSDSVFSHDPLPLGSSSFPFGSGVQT

The target of a further series is FGFR4 V550L kinase (Homo sapiens, UniProt P22455, V550L). The experiment in a line: Inhibition of FGFR4 V550L mutant kinase activity (ULight-labeled PolyGT, EU665/EU615 reading). It counts as biochemical. The settings on record: FGFR4 V550L kinase 1 nM, ATP 10 μM, enzymatic reaction 2 hours. The method in brief: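 TR-FRET kinase assay: 1 nM FGFR4 V550L, 10 μM ATP, 100 nM ULight-PolyGT substrate, 2 h at room temperature after 5 min compound–enzyme preincubation, 1% DMSO. Compound tested as 11-point 3-fold dilution from 2.5 μM to 0.042 nM final. Signal as EU665/EU615 ratio; IC50 fitted from % inhibition.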
Sequence of FGFR4 V550L kinase (P22455 22-802 V550L): as the sequence (P22455 22-802) above, with V529L counted along it

For another series, the target named is T1, Ba/F3 ETV6-FGFR4 cells (Homo sapiens, UniProt P22455).
T1 construct: fused on or other part: N-terminal part of ETV6 (TEL), the oligomerising partner that makes the FGFR4 kinase constitutively active; P41212 (Transcription factor ETV6)
T1 sequence (P22455 whole entry, change not shown, the tested form may be a part): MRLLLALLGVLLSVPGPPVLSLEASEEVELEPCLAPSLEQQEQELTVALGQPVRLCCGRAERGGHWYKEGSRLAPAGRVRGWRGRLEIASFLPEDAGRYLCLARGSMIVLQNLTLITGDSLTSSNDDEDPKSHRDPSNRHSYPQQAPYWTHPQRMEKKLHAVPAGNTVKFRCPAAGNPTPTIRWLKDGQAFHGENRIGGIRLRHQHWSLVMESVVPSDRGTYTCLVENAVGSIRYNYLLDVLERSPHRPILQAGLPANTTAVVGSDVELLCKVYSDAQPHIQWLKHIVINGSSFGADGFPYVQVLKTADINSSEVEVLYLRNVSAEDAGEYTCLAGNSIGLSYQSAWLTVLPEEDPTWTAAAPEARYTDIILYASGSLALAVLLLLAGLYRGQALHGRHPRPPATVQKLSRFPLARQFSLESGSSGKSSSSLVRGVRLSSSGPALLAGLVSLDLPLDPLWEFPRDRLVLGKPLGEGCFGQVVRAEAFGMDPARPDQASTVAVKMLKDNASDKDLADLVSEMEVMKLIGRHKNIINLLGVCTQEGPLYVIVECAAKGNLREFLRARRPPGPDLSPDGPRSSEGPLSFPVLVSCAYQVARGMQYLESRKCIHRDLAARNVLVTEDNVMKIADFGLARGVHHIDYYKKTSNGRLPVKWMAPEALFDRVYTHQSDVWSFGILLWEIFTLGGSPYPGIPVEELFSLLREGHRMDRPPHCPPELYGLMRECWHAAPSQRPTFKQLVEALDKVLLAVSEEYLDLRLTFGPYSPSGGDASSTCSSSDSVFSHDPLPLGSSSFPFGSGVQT
The experiment in a line: Inhibition of cell proliferation (CCK-8), Ba/F3 ETV6-FGFR4 cells. It counts as cell-based. The settings on record: 72 hours of incubation, read-out: Ba/F3 ETV6-FGFR4 IC50. The method in brief: (§1)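 Ba/F3 cells expressing ETV6-FGFR4 or ETV6-FGFR4-V550L exposed for 72 h to 9 concentrations from 4-fold serial dilution (0.25% DMSO final). Viability by CCK-8, OD 450 nm after 1–2 h at 37 °C, relative to untreated and cell-free blanks; IC50 from curve fitting.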

Series [1] concerns the target T2, Ba/F3 ETV6-FGFR4-V550L cells (Homo sapiens, UniProt P22455, V550L, cells depend on it).
T2 construct: fused on or other part: N-terminal part of ETV6 (TEL), the oligomerising partner of the fusion; already named as the first entry; P41212 (Transcription factor ETV6)
The experiment in a line: Inhibition of cell proliferation (CCK-8), Ba/F3 ETV6-FGFR4-V550L cells. It counts as cell-based. As to conditions: 72 hours of incubation, read-out: Ba/F3 ETV6-FGFR4-V550L IC50. The method, boiled down: as §1

In series [2] the test system is FGF19 gene-amplified cells. As to conditions: cited from earlier work.
The conditions of series [3]: mouse and monkey animal models; cited from earlier work.
The test system of another series is FGFR. As to conditions: cited from earlier work.
Another series deals with each subtype of FGFR. The settings on record: cited from earlier work.

The structures appear in SMILES notation. Some results are limits rather than exact numbers.

T2 sequence (P22455 whole entry V550L, the tested form may be a part): as the sequence (P22455 whole entry, change not shown, the tested form may be a part) above, with V550L counted along it

The IC50 is the concentration needed to halve the response being measured. `C=CC(=O)Nc1cc(N2CCC(N(C)CCCS(C)(=O)=O)CC2)ccc1Nc1ncc(C#N)c(Nc2ccccc2OC(C)C)n1` [Example 75, N-(2-((5-cyano-4-((2-isopropoxyphenyl)amino)pyrimidin-2-yl)amino)-5-(4-(methyl(3-(methylsulfonyl)propyl)amino)piperidin-1-yl)phenyl) acrylamide]: the concentration for half-maximal inhibition (IC50) on FGFR4 kinase and on FGFR4 V550L kinase was at most 10 nM each time. In addition, the GI50 (at Ba/F3 ETV6-FGFR4 cells; in series [1]) was at most 10 nM in each case.

Consider `C=CC(=O)Nc1cc(N2CCC(N3CCS(=O)(=O)CC3)CC2)ccc1Nc1ncc(C#N)c(Nc2ccccc2OC(C)C)n1` [Example 76, N-(2-((5-cyano-4-((2-isopropoxyphenyl)amino)pyrimidin-2-yl)amino)-5-(4-(1,1-dioxidothiomorpholino)piperidin-1-yl)phenyl) acrylamide], for which the IC50 against FGFR4 kinase and against FGFR4 V550L kinase was 10 to 50 nM throughout. The GI50 (at Ba/F3 ETV6-FGFR4 cells; in series [1]) was at most 10 nM in each case.

For the molecule `C=CC(=O)Nc1cc(N2CCC(N(C)C3CCOC3)CC2)ccc1Nc1ncc(C#N)c(Nc2ccccc2OC(C)C)n1` (centres unmarked) [Example 77, N-(2-((5-cyano-4-((2-isopropoxyphenyl)amino)pyrimidin-2-yl)amino)-5-(4-(methyl (tetrahydrofuran-3-yl)amino)piperidin-1-yl)phenyl) acrylamide], the IC50 against FGFR4 kinase and at FGFR4 V550L kinase was at most 10 nM throughout. The GI50 (on Ba/F3 ETV6-FGFR4 cells; in series [1]) was at most 10 nM throughout.

Consider `C=CC(=O)Nc1cc(N2CCC(N(C)C3CCOCC3)CC2)ccc1Nc1ncc(C#N)c(Nc2ccccc2OC(C)C)n1` [Example 78, N-(2-((5-cyano-4-((2-isopropoxyphenyl)amino)pyrimidin-2-yl)amino)-5-(4-(methyl(tetrahydro-2H-pyran-4-yl)amino)piperidin-1-yl)phenyl) acrylamide], for which the IC50 against FGFR4 kinase and on FGFR4 V550L kinase was at most 10 nM in each case. Also, the GI50 (on Ba/F3 ETV6-FGFR4 cells; in series [1]) was at most 10 nM each time.

Turning to `C=CC(=O)Nc1cc(N2CCC(N3CCN(C)CC3)CC2)ccc1Nc1ncc(C#N)c(Nc2ccccc2CC(C)C)n1` [Example 79, N-(2-((5-cyano-4-((2-isobutylphenyl)amino)pyrimidin-2-yl)amino)-5-(4-(4-methylpiperazin-1-yl)piperidin-1-yl)phenyl)acrylamide], the IC50 against FGFR4 kinase is 10 to 50 nM; against FGFR4 V550L kinase, 50 to 100 nM. Also, the GI50 (on Ba/F3 ETV6-FGFR4 cells; in series [1]) was 10 to 50 nM throughout.

As for `C=CC(=O)Nc1cc(N2CCC(N3CCN(C)CC3)CC2)ccc1Nc1ncc(C#N)c(Nc2ccccc2S(=O)(=O)C(C)C)n1` [Example 80, N-(2-((5-cyano-4-((2-(isopropylsulfonyl)phenyl)amino)pyrimidin-2-yl)amino)-5-(4-(4-methylpiperazin-1-yl)piperidin-1-yl)phenyl) acrylamide], the IC50 against FGFR4 kinase and against FGFR4 V550L kinase was at most 10 nM throughout. Further, the GI50 (on Ba/F3 ETV6-FGFR4 cells; in series [1]) was at most 10 nM in each case.

For the molecule `C=CC(=O)Nc1cc(N2CCC(N3CCN(C)CC3)CC2)ccc1Nc1ncc(C#N)c(Nc2ccccc2SC(C)C)n1` [Example 81], the half-maximal inhibitory concentration (IC50) on FGFR4 kinase and against FGFR4 V550L kinase was at most 10 nM throughout. For the same molecule, the GI50 (on Ba/F3 ETV6-FGFR4 cells; in series [1]) was at most 10 nM in each case.

For `C=CC(=O)Nc1cc(N2CCN(CC)CC2)ccc1Nc1cc(N(C)C(=O)Nc2c(Cl)c(OC)cc(OC)c2Cl)ncn1` [Example H3B6527], in series [2], the “antitumor activity against FGF19 gene-amplified cells” value is reported as “strong antitumor activity”. Further, the “bile acid-related adverse effects” value in series [3] is “without bile acid-related adverse effects”.

`CCN(CC)CCCCNc1ncc2cc(-c3cc(OC)cc(OC)c3)c(NC(=O)NC(C)(C)C)nc2n1` [PD173074]: the FGFR inhibitory activity entry in the series on FGFR is listed as “nanomolar inhibitory activity”.

Consider `C=CC(=O)N1CCN(CCCn2c(=O)c(-c3c(Cl)c(OC)cc(OC)c3Cl)cc3cnc(NC)nc32)CC1` [PRN-1371], for which the “enzymatic inhibitory activity against each subtype of FGFR” value in the series with each subtype of FGFR is on record as “nanomolar levels”.

Values taken from patent publication US12582654B2, “Cyano-substituted pyridine and cyano-substituted pyrimidine compound and preparation method therefor and application thereof” (BEIJING SCITECH-MQ PHARMACEUTICALS LIMITED, priority 2019, dated 2026).
